Legend:
Z-138 cells [1] = test: Z-138 Proliferation Assay (Cell Titer Glo, 5 days); format: cell-based; settings: Homo sapiens, Table D-2
Outline: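 Exponentially growing Z-138 cells (10,000 cells/ml) in RPMI 1640 with 10% FBS are exposed to nine-point 3-fold dilutions (final top concentration 20 μM, 0.2% DMSO) for 5 days at 37° C. Viability is measured as ATP by CellTiter-Glo luminescence. The 50% inhibitory concentration comes from a 4-parameter fit.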

Z-138 cells [2] = test: Z-138 Methylation Assay (In Cell Western for symmetric di-methyl arginine and DNA content); format: cell-based; settings: Homo sapiens, Table D-2, read-out: ICW EC50
Outline: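 Z-138 cells at 50,000 cells/mL exposed to compound 96 h at 37 °C, then attached to poly-D-lysine plates, fixed with paraformaldehyde and probed with anti-symmetric di-methyl arginine plus DRAQ5 DNA stain. 800/700 nm ratio normalized to DMSO and 3 μM reference controls; IC50 from triplicate wells.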

SMILES	EC50 (Z-138 cells [2]) [µM]	EC50 (Z-138 cells [1]) [µM]
O=C(c1ccc(Cn2nccc2-c2ccc(OCC(O)CN3CCc4ccccc4C3)cc2)cc1)N1CCCC1 (stereo not shown) [Compound D31]	1 to 10	10 to 40
COC(COc1cccc(CNC2CCCC2)c1)CN1CCc2ccccc2C1 (stereo not shown) [Compound D32]	> 20	> 40
OC(CNc1cccc(CNC2CCCC2)c1)CN1CCc2ccccc2C1 (stereo not shown) [Compound D39]	1 to 10	> 20
OC(COc1cccc(-c2ccccc2)c1)CN1CCc2ccccc2C1 (stereo not shown) [Compound D43]	1 to 10	> 20
Cn1cnc2ccc(-c3cccc(OCC(O)CN4CCc5ccccc5C4)c3)cc21 (stereo not shown) [Compound D45]	0.101 to 1	1 to 10
OC(COc1ccc(C2CCCNC2)cc1)CN1CCc2ccccc2C1 (stereo not shown) [Compound D47]	0.101 to 1	1 to 10
CC(Oc1cccc(CNC2CCCC2)c1)C(O)CN1CCc2ccccc2C1 (stereo not shown) [Compound D49]	0.101 to 1	1 to 10
CN(CC(O)CN1CCc2ccccc2C1)c1cccc(CNC2CCCC2)c1 (stereo not shown) [Compound D53]	0.101 to 1	10 to 40
OC(COc1cccc(-c2ccc3cn[nH]c3c2)c1)CN1CCc2ccccc2C1 (stereo not shown) [Compound D58]	1 to 10	10 to 40
OC(COc1cccc(-c2ccc3c(c2)OCO3)c1)CN1CCc2ccccc2C1 (stereo not shown) [Compound D59]	10 to 40	10 to 40
Cn1cnc2cc(-c3cccc(OCC(O)CN4CCc5ccccc5C4)c3)ccc21 (stereo not shown) [Compound D60]	0.101 to 1	10 to 40
OC(COc1cccc(-c2cc(C(F)(F)F)ccc2Cl)c1)CN1CCc2ccccc2C1 (stereo not shown) [Compound D62]	1 to 10	10 to 40
CS(=O)(=O)c1ccc(-c2cccc(OCC(O)CN3CCc4ccccc4C3)c2)cc1 (stereo not shown) [Compound D63]	1 to 10	10 to 40
OC(COc1cccc(-c2cccc3cccnc23)c1)CN1CCc2ccccc2C1 (stereo not shown) [Compound D65]	0.101 to 1	10 to 40
CC(=O)c1cccc(-c2cccc(OCC(O)CN3CCc4ccccc4C3)c2)c1 (stereo not shown) [Compound D67]	1 to 10	10 to 40
OC(COc1cccc(-c2cccc(F)c2F)c1)CN1CCc2ccccc2C1 (stereo not shown) [Compound D68]	10 to 40	10 to 40
OCc1cccc(-c2cccc(OCC(O)CN3CCc4ccccc4C3)c2)c1 (stereo not shown) [Compound D72]	1 to 10	10 to 40
COc1cccc(-c2cccc(OCC(O)CN3CCc4ccccc4C3)c2)c1 (stereo not shown) [Compound D74]	1 to 10	10 to 40
COc1ccc(-c2cccc(OCC(O)CN3CCc4ccccc4C3)c2)cc1 (stereo not shown) [Compound D75]	1 to 10	10 to 40
CC1c2ccccc2CCN1CC(O)COc1cccc(-c2ccc3ncn(C)c3c2)c1 (stereo not shown) [Compound D80]	> 20	1 to 10
CC(C)n1cnc2ccc(-c3cccc(OCC(O)CN4CCc5ccccc5C4)c3)cc21 (stereo not shown) [Compound D81]	0.101 to 1	10 to 40

SMILES	EC50 (Z-138 cells [2]) [µM]	EC50 (Z-138 cells [1]) [µM]
COc1ccc(Cn2cnc3ccc(-c4cccc(OCC(O)CN5CCc6ccccc6C5)c4)cc32)cc1 (stereo not shown) [Compound D82]	1 to 10	10 to 40
OC(COc1cccc(-c2ccc3nc[nH]c3c2)c1)CN1CCc2ccccc2C1 (stereo not shown) [Compound D83]	1 to 10	10 to 40
OC(COc1cccc(-c2ccc3nn[nH]c3c2)c1)CN1CCc2ccccc2C1 (stereo not shown) [Compound D84]	1 to 10	1 to 10
OC(COc1cccc(-c2ccc3c(c2)OCCO3)c1)CN1CCc2ccccc2C1 (stereo not shown) [Compound D85]	1 to 10	10 to 40
OC(COc1cccc(-c2cccc3c2oc2ccccc23)c1)CN1CCc2ccccc2C1 (stereo not shown) [Compound D86]	1 to 10	10 to 40
COc1ccc(-c2cccc(OCC(O)CN3CCc4ccccc4C3)c2)c(Cl)c1 (stereo not shown) [Compound D88]	1 to 10	10 to 40
OC(COc1cccc(-c2cnc3ccccc3c2)c1)CN1CCc2ccccc2C1 (stereo not shown) [Compound D89]	1 to 10	10 to 40
COc1ccc(-c2cccc(OCC(O)CN3CCc4ccccc4C3)c2)c(C)c1 (stereo not shown) [Compound D90]	1 to 10	10 to 40
OC(COc1cccc(-c2ccccc2Cl)c1)CN1CCc2ccccc2C1 (stereo not shown) [Compound D92]	1 to 10	10 to 40
OC(COc1cccc(-c2ccc3ncn(C4CNC4)c3c2)c1)CN1CCc2ccccc2C1 (stereo not shown) [Compound D208]	1 to 10	1 to 10
OC(COc1cccc(-c2ccc3ncn(C4CCNC4)c3c2)c1)CN1CCc2ccccc2C1 (stereo not shown) [Compound D209]	0.101 to 1	1 to 10
Cn1cc2ccc(-c3cccc(OCC(O)CN4CCc5ccccc5C4)c3)nc2n1 (stereo not shown) [Compound D210]	0.101 to 1	10 to 40
Cn1ncc2c1CN(c1cccc(OCC(O)CN3CCc4ccccc4C3)c1)CC2 (stereo not shown) [Compound D216]	1 to 10	> 20
Cn1cnc2ccc(-c3cc(NCC(O)CN4CCc5ccccc5C4)ccn3)cc21 (stereo not shown) [Compound D217]	1 to 10	10 to 40
CN1CC(n2cnc3ccc(-c4cccc(OCC(O)CN5CCc6ccccc6C5)c4)cc32)C1 (stereo not shown) [Compound D218]	0.101 to 1	1 to 10
CN1CCC(n2cnc3ccc(-c4cccc(OCC(O)CN5CCc6ccccc6C5)c4)cc32)C1 (stereo not shown) [Compound D219]	0.101 to 1	1 to 10
OC(COc1cccc(-c2ccc3ncn(C4CCNCC4)c3c2)c1)CN1CCc2ccccc2C1 (stereo not shown) [Compound D220]	0.101 to 1	1 to 10
CN1CCC(n2cnc3ccc(-c4cccc(OCC(O)CN5CCc6ccccc6C5)c4)cc32)CC1 (stereo not shown) [Compound D221]	0.101 to 1	1 to 10
OC(COc1cccc(-c2cccc3[nH]cnc23)c1)CN1CCc2ccccc2C1 (stereo not shown) [Compound D223]	0.101 to 1	10 to 40
OC(CNc1cccc(-c2cccc3[nH]cnc23)c1)CN1CCc2ccccc2C1 (stereo not shown) [Compound D235]	0.101 to 1	10 to 40
Cn1ncc2cnc(-c3cccc(OCC(O)CN4CCc5ccccc5C4)c3)cc21 (stereo not shown) [Compound D248]	0.101 to 1	10 to 40

Second part, led by results:

EC50 (Z-138 cells [2]) [µM]	SMILES	EC50 (Z-138 cells [1]) [µM]
0.101 to 1	O=C(Cn1ccc2cnc(-c3cccc(OCC(O)CN4CCc5ccccc5C4)c3)nc21)N1CCOCC1 (stereo not shown) [Compound D222]	10 to 40
0.101 to 1	Cn1cc2ccc(-c3cc(NCC(O)CN4CCc5ccccc5C4)ncn3)cc2n1 (stereo not shown) [Compound D224]	> 20
0.101 to 1	Cn1ncc2ccc(-c3ccnc(NCC(O)CN4CCc5ccccc5C4)c3)cc21 (stereo not shown) [Compound D226]	1 to 10
< 0.1	O=C(Cn1ccc2cnc(-c3ccnc(NCC(O)CN4CCc5ccccc5C4)c3)nc21)N1CCCC1 (stereo not shown) [Compound D233]	1 to 10
< 0.1	O=C(Cn1ccc2cnc(-c3ccnc(NCC(O)CN4CCc5ccccc5C4)c3)nc21)N1CCOCC1 (stereo not shown) [Compound D234]	0.101 to 1
0.101 to 1	Cn1cc2ccc(-c3ccnc(NCC(O)CN4CCc5ccccc5C4)c3)cc2n1 (stereo not shown) [Compound D236]	1 to 10
0.101 to 1	Cn1ccc2ccc(-c3cc(NCC(O)CN4CCc5ccccc5C4)ncn3)cc21 (stereo not shown) [Compound D237]	10 to 40
< 0.1	Cn1cnc2ccc(-c3ccnc(NCC(O)CN4CCc5ccccc5C4)c3)nc21 (stereo not shown) [Compound D238]	1 to 10
< 0.1	Cn1ccc2cnc(-c3ccnc(NCC(O)CN4CCc5ccccc5C4)c3)nc21 (stereo not shown) [Compound D239]	1 to 10
0.101 to 1	OC(CNc1cc(-c2ccc3ncn(C4CCNC4)c3c2)ccn1)CN1CCc2ccccc2C1 (stereo not shown) [Compound D240]	1 to 10
0.101 to 1	OC(CNc1cc(-c2ccc3ncn(C4CCNCC4)c3c2)ccn1)CN1CCc2ccccc2C1 (stereo not shown) [Compound D241]	1 to 10
0.101 to 1	CC(=O)N1CCC(n2cnc3ccc(-c4ccnc(NCC(O)CN5CCc6ccccc6C5)c4)cc32)CC1 (stereo not shown) [Compound D242]	1 to 10
0.101 to 1	CC(=O)N1CCC(n2ccc3cnc(-c4cccc(OCC(O)CN5CCc6ccccc6C5)c4)nc32)CC1 (stereo not shown) [Compound D243]	1 to 10
0.101 to 1	CN1CCN(C(=O)Cn2ccc3cnc(-c4cccc(OCC(O)CN5CCc6ccccc6C5)c4)nc32)CC1 (stereo not shown) [Compound D244]	10 to 40
0.101 to 1	CNC(=O)Cn1ccc2cnc(-c3ccnc(NCC(O)CN4CCc5ccccc5C4)c3)nc21 (stereo not shown) [Compound D245]	1 to 10
< 0.1	O=C(Cn1ccc2cnc(-c3ccnc(NCC(O)CN4CCc5ccccc5C4)c3)nc21)N1CCCCC1 (stereo not shown) [Compound D246]	0.101 to 1
< 0.1	CN1CCN(C(=O)Cn2ccc3cnc(-c4ccnc(NCC(O)CN5CCc6ccccc6C5)c4)nc32)CC1 (stereo not shown) [Compound D247]	1 to 10
0.101 to 1	O=C(Cn1cnc2ccc(-c3cccc(OCC(O)CN4CCc5ccccc5C4)c3)cc21)N1CCCCC1 (stereo not shown) [Compound D249]	10 to 40
0.101 to 1	CN1CCC(n2cnc3ccc(-c4ccnc(NCC(O)CN5CCc6ccccc6C5)c4)cc32)C1 (stereo not shown) [Compound D250]	1 to 10
0.101 to 1	OC(CNc1cc(-c2ccc3ncn(C4CCOCC4)c3c2)ccn1)CN1CCc2ccccc2C1 (stereo not shown) [Compound D251]	1 to 10
0.101 to 1	CN1CCC(n2cnc3ccc(-c4ccnc(NCC(O)CN5CCc6ccccc6C5)c4)cc32)CC1 (stereo not shown) [Compound D252]	1 to 10
0.101 to 1	OC(COc1cccc(-c2ncc3ccn(C4CCNCC4)c3n2)c1)CN1CCc2ccccc2C1 (stereo not shown) [Compound D253]	1 to 10
0.101 to 1	OC(CNc1cc(-c2ncc3ccn(C4CNC4)c3n2)ccn1)CN1CCc2ccccc2C1 (stereo not shown) [Compound D254]	1 to 10

Reference: US20150344457A1, “METHODS OF INHIBITING PRMT5” (EPIZYME, INC., priority 2012, published 2015)
